Measurements from patent US12390426B1, “Use of adamantane compositions and methods of reducing fibrotic tissue” (Ventoux Biosciences, Inc., priority 2024, dated 2025).
Structures can show the parent of a compound that is named as a salt.

Experiments:
[1] = tested on: Alzheimer's disease; conditions: cited from earlier work
[2] = tested on: Bleomycin-Induced Dermal Fibrosis; test: Bleomycin-induced dermal fibrosis animal model; assay type: in vivo, C57Bl/6 Mice; conditions: 15 mg/kg intraperitoneal once daily days 0-27; bleomycin 20 μg s.c. daily; stated in words only, figure values not given
Description: Animal Model Designed to Determine Efficacy of Memantine for the Treatment of Bleomycin-Induced Dermal Fibrosis
Forty-two normal male C57Bl/6 Mice were obtained from Charles River Laboratories. Mice age at the start of the study were from 6-8 weeks old. Study subjects were allocated as follows: 1 group of 6 mice and 3 groups of 12 mice each. Animals were not replaced during the study.
(§1) Bleomycin from Henry Schein (Cat #: 8700001) was obtained as a lyophilized powder. Unformulated Bleomycin was stored at 4° C. Formulated Bleomycin was prepared by mixing the lyophilized Bleomycin powder with saline to obtain a 0.4 mg/ml solution. Unused unformulated Bleomycin was retained. The prepared Bleomycin solution was aliquoted into 50 μL, 0.4 mg/ml Bleomycin parts and stored at −80° C. Bleomycin was prepared once and daily aliquots were frozen. Frozen aliquots were thawed daily for administration. […] Bleomycin was administered once daily on days 0-27 at 20 μg per subcutaneous injection. Unused formulated Bleomycin was disposed.
Memantine HCl from Selleckchem (Cat #: S2043) was obtained. Unformulated Memantine HCl was stored at −20° C. […]
Animals were dosed with test articles, administered at least 60 minutes prior to Bleomycin or saline injections. All animals were weighed and evaluated daily. […]

[3] = tested on: long term potentiation; conditions: animal models; cited from earlier work
[4] = Stability of the formulated dosing solutions; assay type: physicochemical; conditions: 0.4 mg/ml in saline; room temperature
Procedure: as §1
Memantine HCl from Selleckchem (Cat #: S2043) was obtained. Unformulated Memantine HCl was stored at −20° C. Memantine was formulated daily by the following procedure: dissolve memantine in a 50/50 mixture of Kolliphor® EL (Sigma, Cat #: C5135)/ethanol for a 4× concentration of 12 mg/ml. Once dissolved, 3 parts MilliQ water is added for a final concentration of 3 mg/ml for dosing (12.5% Kolliphor® EL, 12.5% ethanol, 75% water). Unused unformulated Memantine was disposed. Memantine was formulated daily and administered by intraperitoneal injection once daily on days 0-27 at 15 mg/kg; 0.1 mL/20 g (5 mL/kg). […] Unused formulated Memantine was disposed.

Compound	cognitive, functional and global endpoints ([1]; three randomized placebo-controlled trials, Alzheimer's disease)	tolerability ([1]; used in Germany for neurological syndromes and cognitive deficits since 1982)	efficacy at treating fibromatosis conditions [2]	duration of long term potentiation in vivo [3]	learning and memory [3]	stability of formulated Bleomycin [4]
CC12CC3CC(C)(C1)CC(N)(C3)C2 [Memantine, Memantine HCl]	significant improvements	good tolerability	Effective at Treating Fibromatosis Conditions	prolong the duration of long term potentiation in vivo	improve learning and memory	
Bleomycin						stable for a few hours at room temperature
